Assay results reported in patent US20220016060A1, “USE OF SODIUM 2-(3-PENTYLPHENYL)ACETATE IN THE TREATMENT OF ALSTRÖM SYNDROME” (LIMINAL BIOSCIENCES LIMITED, priority 2018, published 2022).
Several values for one entry are separate records, joined by “and”; a condition that tells them apart may be missing. Equal entries are not always repeated. Entries after “also recorded” stand apart in the source; their conditions may differ.

Experiments:
ALMS patients [1] = test: Liver stiffness by transient elastography (FibroScan) and Metavir score, Phase 2 open-label study; format: in vivo, human; details: for Change from Baseline Transient Elastography, Mean (SD) / Change from Baseline Transient Elastography, Median / Transient Elastography Score / Metavir Score (F): 800 mg daily oral
Protocol: The study was a Phase 2, single-centre, single-arm, open-label study of sodium 2-(3-pentylphenyl)acetate administered at a total daily oral dose of 800 mg for up to 72 weeks in subjects with ALMS was undertaken. The initial duration of the study was 24 weeks, and subjects were offered to enrol into an extension phase of 36 or 48 weeks. The schedule of study procedures for the enrolment, intervention, and assessments for participants is outlined in FIG. 1. Sodium 2-(3-pentylphenyl)acetate was formulated in soft gelatine capsules containing 200 mg of Sodium 2-(3-pentylphenyl)acetate (amorphous powder) per capsule, polyethylene glycol 400, National Formulary (NF), hydrochloric acid (for pH adjustment), and water. A total of 15 subjects participated in the study. […] Twelve (12) subjects met the eligibility criteria and received at least 1 dose of 800 mg sodium 2-(3-pentylphenyl)acetate, with all 12 subjects completing the initial 24-week treatment period as planned. A 36-week EP was added to the study protocol (Table 1). Ten (10) of the 12 subjects who completed the initial 24-week study drug treatment period continued in the EP, with 6 subjects having a break in treatment until the amendment was implemented before continuing treatment in the EP and 4 subjects continuing in the EP without any break in treatment. Two subjects (826-001-002 and 826-001-014) completed the study after the initial 24-week study drug treatment period. The effect of sodium 2-(3-pentylphenyl)acetate on liver histology in ALMS patients was first assessed by measuring liver stiffness. Liver stiffness is a physical parameter that reflects the health of the liver and is commonly used to diagnose liver diseases. Increased liver stiffness may be associated with hepatic dysfunction.

ALMS patients [2] = test: Non-Alcoholic Fatty Liver Disease (NAFLD) Fibrosis Score; format: in vivo, human; details: for Change from Baseline NAFLD Score with an FPG > 5.6 mmol/L, Mean (SD) / Change from Baseline NAFLD Score with an FPG > 5.6 mmol/L, Median: 800 mg daily oral
Protocol: The study was a Phase 2, single-centre, single-arm, open-label study of sodium 2-(3-pentylphenyl)acetate administered at a total daily oral dose of 800 mg for up to 72 weeks in subjects with ALMS was undertaken. The initial duration of the study was 24 weeks, and subjects were offered to enrol into an extension phase of […]. The schedule of study procedures for the enrolment, intervention, and assessments for participants is outlined in FIG. 1. Sodium 2-(3-pentylphenyl)acetate was formulated in soft gelatine capsules containing 200 mg of Sodium 2-(3-pentylphenyl)acetate (amorphous powder) per capsule, polyethylene glycol 400, National Formulary (NF), hydrochloric acid (for pH adjustment), and water. The effect of sodium 2-(3-pentylphenyl)acetate on liver histology in ALMS patients was also assessed by measuring the Non-Alcoholic Fatty Liver Disease (NAFLD) Fibrosis Score. Increased NAFLD fibrosis score may be associated with hepatic dysfunction.

[3] = individual subjects, EP Week 12 (Week 36)
[4] = individual subjects, EP Week 24 (Week 48)
[5] = individual subjects, EP Week 36 (Week 60)

## CCCCCc1cccc(CC(=O)[O-])c1.[Na+] [sodium 2-(3-pentylphenyl)acetate]
ALMS patients [1]; 8/11 subjects, after treatment with 800 mg
  subjects in whom liver stiffness decreased from baseline: 72.3%
ALMS patients [1]; EP Week 12 (Week 36), N=10
  Change from Baseline Transient Elastography, Mean (SD): −1.41 (2.585) kPa
  Change from Baseline Transient Elastography, Median: −1.75 kPa
ALMS patients [1]; EP Week 24 (Week 48), N=10
  Change from Baseline Transient Elastography, Mean (SD): −1.49 (2.335) kPa
  Change from Baseline Transient Elastography, Median: −1.45 kPa
ALMS patients [1]; EP Week 36 (Week 60), N=9
  Change from Baseline Transient Elastography, Mean (SD): −2.59 (2.703) kPa
  Change from Baseline Transient Elastography, Median: −2.30 kPa
ALMS patients [1]; Subject 826-001-013, 30-day break in treatment
  largest increase in liver stiffness from baseline: 1.8 kPa
ALMS patients [1]; Subject 826-001-015, baseline F4
  Metavir score at Week 60: F0/1 (Metavir score F0-F1: absence or mild fibrosis (2.5-7.0 kPa on FibroScan ®))
ALMS patients [1]; Subjects 826-001-001, -004, -012, -015
  number of subjects with at least a 1-grade reduction in liver fibrosis (Metavir scoring system): 4 subjects
ALMS patients [1]; Week 12, N=11
  Change from Baseline Transient Elastography, Mean (SD): −1.19 (2.160) kPa
  Change from Baseline Transient Elastography, Median: −1.50 kPa
ALMS patients [1]; Week 24, N=11
  Change from Baseline Transient Elastography, Mean (SD): −1.01 (2.308) kPa
  Change from Baseline Transient Elastography, Median: −0.70 kPa
ALMS patients [1]; after 60 weeks of treatment, p=0.0207
  decrease in liver stiffness from baseline (mean): 2.59 kPa
ALMS patients [1]; individual subjects (one line per subject), Week 12
  Transient Elastography Score: 7.1 kPa and 6.1 kPa and 4.5 kPa and 5.3 kPa and 3.1 kPa and 10.5 kPa and 19.6 kPa and 7.8 kPa and 12.2 kPa and 12.0 kPa and 50.5 kPa and 7.7 kPa
ALMS patients [1]; [3]
  Metavir Score (F): (F0/1) (Metavir score F0-F1: absence or mild fibrosis (2.5-7.0 kPa on FibroScan ®)); also recorded: (F2) (Metavir score F2: significant fibrosis ≥ 7.1 to < 9.5 kPa on FibroScan ®)); also recorded: (F4) (Metavir score F4: cirrhosis( ≥ 12.5 kPa on FibroScan ®)); also recorded: (F3) (Metavir score F3: severe fibrosis ≥ 9.5 to < 12.5 kPa on FibroScan ®)
  Transient Elastography Score: 6.6 kPa and 4.2 kPa and 6.5 kPa and 4.6 kPa and 8.9 kPa and 18.6 kPa and 5.8 kPa and 10.2 kPa and 14.7 kPa and 7.4 kPa
ALMS patients [1]; [4]
  Metavir Score (F): (F2) (Metavir score F2: significant fibrosis ≥ 7.1 to < 9.5 kPa on FibroScan ®)); also recorded: (F0/1) (Metavir score F0-F1: absence or mild fibrosis (2.5-7.0 kPa on FibroScan ®)); also recorded: (F4) (Metavir score F4: cirrhosis( ≥ 12.5 kPa on FibroScan ®)); also recorded: (F3) (Metavir score F3: severe fibrosis ≥ 9.5 to < 12.5 kPa on FibroScan ®)
  Transient Elastography Score: 7.1 kPa and 4.1 kPa and 4.7 kPa and 5.1 kPa and 7.5 kPa and 21.6 kPa and 5.0 kPa and 12.1 kPa and 12.6 kPa and 6.9 kPa
ALMS patients [1]; [5]
  Metavir Score (F): (F2) (Metavir score F2: significant fibrosis ≥ 7.1 to < 9.5 kPa on FibroScan ®)); also recorded: (F0/1) (Metavir score F0-F1: absence or mild fibrosis (2.5-7.0 kPa on FibroScan ®)); also recorded: (F4) (Metavir score F4: cirrhosis( ≥ 12.5 kPa on FibroScan ®)); also recorded: (F3) (Metavir score F3: severe fibrosis ≥ 9.5 to < 12.5 kPa on FibroScan ®)
  Transient Elastography Score: 7.8 kPa and 3.8 kPa and 5.0 kPa and 3.9 kPa and 17.1 kPa and 6.0 kPa and 8.6 kPa and 12.2 kPa and 5.1 kPa
ALMS patients [1]; individual subjects, Week 12
  Metavir Score (F): (F2) (Metavir score F2: significant fibrosis ≥ 7.1 to < 9.5 kPa on FibroScan ®)); also recorded: (F0/1) (Metavir score F0-F1: absence or mild fibrosis (2.5-7.0 kPa on FibroScan ®)); also recorded: (F3) (Metavir score F3: severe fibrosis ≥ 9.5 to < 12.5 kPa on FibroScan ®); also recorded: (F4) (Metavir score F4: cirrhosis( ≥ 12.5 kPa on FibroScan ®))
ALMS patients [1]; individual subjects, Week 24
  Metavir Score (F): (F2) (Metavir score F2: significant fibrosis ≥ 7.1 to < 9.5 kPa on FibroScan ®)); also recorded: (F0/1) (Metavir score F0-F1: absence or mild fibrosis (2.5-7.0 kPa on FibroScan ®)); also recorded: (F4) (Metavir score F4: cirrhosis( ≥ 12.5 kPa on FibroScan ®))
  Transient Elastography Score: 7.2 kPa and 7.6 kPa and 5.9 kPa and 5.2 kPa and 4.6 kPa and 8.1 kPa and 21.8 kPa and 5.6 kPa and 8.6 kPa and 14.3 kPa and 48.9 kPa and 9.0 kPa
ALMS patients [2]; 7/12 subjects
  subjects in whom NAFLD fibrosis score decreased or did not change from baseline: 58.3%
ALMS patients [2]; EP Week 12 (Week 36), N=10
  Change from Baseline NAFLD Score with an FPG > 5.6 mmol/L, Mean (SD): −0.39 (0.683)
  Change from Baseline NAFLD Score with an FPG > 5.6 mmol/L, Median: −0.69
ALMS patients [2]; EP Week 24 (Week 48), N=9
  Change from Baseline NAFLD Score with an FPG > 5.6 mmol/L, Mean (SD): −0.34 (0.758)
  Change from Baseline NAFLD Score with an FPG > 5.6 mmol/L, Median: −0.28
